Results reported in ChEMBL document CHEMBL1201862, “PubChem BioAssay data set” (2004).
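Grown in 96-well plates, cells were treated for 48 hours with each compound at five concentrations. Insufficient inhibition: endpoint recorded as highest concentration tested. GI50 marks 50% less growth.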 The source made the active and inactive calls. No stated cut-off is given here; in the data, active = GI50 up to about 1.1 µM and inactive = higher.

Experiments:
Experiment in all cases: NCI-60 cell line screen, 48 h
[1] = test system: NCI-H226
[2] = test system: UO-31
[3] = test system: CAKI-1
[4] = test system: RXF 393
[5] = test system: COLO 205
[6] = test system: IGROV-1
[7] = test system: BT-549
[8] = test system: Hs-578T
[9] = test system: 786-0
[10] = test system: A498
[11] = test system: LOX IMVI
[12] = test system: MCF7
[13] = test system: SK-MEL-5
[14] = test system: MDA-N
[15] = test system: M14
[16] = test system: DU-145
[17] = test system: U-251
[18] = test system: K562
[19] = test system: SK-OV-3
[20] = test system: SK-MEL-28
[21] = test system: SF-295
[22] = test system: EKVX
[23] = test system: OVCAR-8
[24] = test system: MDA-MB-231
[25] = test system: HCT-116
[26] = test system: SK-MEL-2
[27] = test system: HL-60
[28] = test system: UACC-257
[29] = test system: SW-620
[30] = test system: SN12C
[31] = test system: TK-10
[32] = test system: HOP-92
[33] = test system: HT-29
[34] = test system: PC-3
[35] = test system: HCT-15
[36] = test system: SF-539
[37] = test system: A549
[38] = test system: SNB-19
[39] = test system: MDA-MB-435
[40] = test system: KM12
[41] = test system: MOLT-4
[42] = test system: ACHN
[43] = test system: OVCAR-5
[44] = test system: OVCAR-4
[45] = test system: CCRF-CEM
[46] = test system: SNB-75
[47] = test system: OVCAR-3
[48] = test system: NCI-H522
[49] = test system: RPMI-8226
[50] = test system: NCI-H460
[51] = test system: SF-268
[52] = test system: NCI/ADR-RES
[53] = test system: Malme-3M
[54] = test system: T47D
[55] = test system: UACC-62
[56] = test system: HOP-62
[57] = test system: SR

With COc1nc2ncc([C@@H](OC(C)=O)[C@@H](COC(C)=O)OC(C)=O)nc2c(=O)n1C the GI50 [1] was > 100 µM (inactive), the GI50 [2] was > 100 µM (inactive) and the GI50 [3] was > 100 µM (inactive). The GI50 [4] was > 100 µM (inactive), the GI50 [5] was > 100 µM (inactive) and the GI50 [6] was > 100 µM (inactive). For the same compound, the GI50 [7] was > 100 µM (inactive), the GI50 [8] was > 100 µM (inactive) and the GI50 [9] was > 100 µM (inactive). The GI50 [10] was > 100 µM (inactive), the GI50 [11] was > 100 µM (inactive) and the GI50 [12] was > 100 µM (inactive). For the same compound, the GI50 [13] was > 100 µM (inactive), the GI50 [14] was > 100 µM (inactive) and the GI50 [15] was > 100 µM (inactive). The GI50 [16] was > 100 µM (inactive), the GI50 [17] was > 100 µM (inactive) and the GI50 [18] was > 100 µM (inactive). The GI50 [19] was > 100 µM (inactive), the GI50 [20] was > 100 µM (inactive) and the GI50 [21] was > 100 µM (inactive). For the same compound, the GI50 [22] was > 100 µM (inactive), the GI50 [23] was > 100 µM (inactive) and the GI50 [24] was > 100 µM (inactive). For the same compound, the GI50 [25] was > 100 µM (inactive), the GI50 [26] was > 100 µM (inactive) and the GI50 [27] was 24.3 µM (inactive). For the same compound, the GI50 [28] was > 100 µM (inactive), the GI50 [29] was > 100 µM (inactive) and the GI50 [30] was > 100 µM (inactive). For the same compound, the GI50 [31] was > 100 µM (inactive), the GI50 [32] was > 100 µM (inactive) and the GI50 [33] was > 100 µM (inactive). For the same compound, the GI50 [34] was > 100 µM (inactive), the GI50 [35] was greater than 100 µM and the GI50 [36] was > 100 µM (inactive). The GI50 [37] was > 100 µM (inactive), the GI50 [38] was > 100 µM (inactive) and the GI50 [39] was > 100 µM (inactive). The GI50 [40] was > 100 µM (inactive), the GI50 [41] was > 100 µM (inactive) and the GI50 [42] was > 100 µM (inactive). For the same compound, the GI50 [43] was > 100 µM (inactive), the GI50 [44] was 48 µM (inactive) and the GI50 [45] was 58.1 µM (inactive). The GI50 [46] was > 100 µM (inactive), the GI50 [47] was > 100 µM (inactive) and the GI50 [48] was 57.5 µM (inactive). For the same compound, the GI50 [49] was 96.8 µM (inactive), the GI50 [50] was > 100 µM (inactive) and the GI50 [51] was > 100 µM (inactive). The GI50 [52] was > 100 µM (inactive), the GI50 [53] was > 100 µM (inactive) and the GI50 [54] was > 100 µM (inactive). For the same compound, the GI50 [55] was > 100 µM (inactive), the GI50 [56] was > 100 µM (inactive) and the GI50 [57] was > 100 µM (inactive).
